Laboratory results taken from patent US20160081986A1, “LONG-ACTING SPIRO-ISOXAZOLINE ANTIPARASITIC COMPOSITIONS” (priority 2013, published 2016).

Tests used:
[1] = system: ticks (Ixodes scapularis); assay: 6 Month PKPD study: efficacy against ticks on beagle dogs; assay type: in vivo; conditions: for Geometric mean live ticks (LT): dogs, 25 mg/kg topical on Day 0; for % Reduction live ticks: vs control
Procedure: (§1) The spiro-azetidine isoxazoline, (S)-1-(5′-(5-(3,5-dichloro-4-fluorophenyl)-5-(trifluoromethyl)-4,5-dihydroisoxazol-3-yl)-3′H-spiro[azetidine-3,1′-isobenzofuran]-1-yl)-2-(methylsulfonyl)ethanone (Compound 1) was used to conduct an in-vivo long-acting efficacy study.
(§2) The study assessed the efficacy of a 25 mg/kg (0.1 mL/kg) topical dose of Compound 1 versus control against fleas (Ctenocephalides felis) and ticks (Ixodes scapularis) on beagle dogs. The formulation was butyl digol:dimethyl isosorbide (90:10 v/v %), selected as it had excellent solubility for Compound 1. Eight male and eight female dogs were acclimated to the testing facility. On Day 0 of the study, each animal received a topical dose of Compound 1 or control (formulation without Compound 1). On Days 56, 89, 117, 145, and 173, animals were artificially infested with about 100 adult unfed fleas. Flea counts were conducted 24 hours post infestation. At each count, all fleas were removed from the dogs. On Days 55, 88, 116, 144, and 172, all dogs were infested with about 50 viable, unfed adult ticks. Tick counts were conducted 48 hours post infestation. At each count, all ticks were removed from the dogs. Further, some hair was removed from the left or right shoulder from three individual dogs from each treatment group 26 days post dose. The hair from each dog was equally divided and placed into two separate 20 mL scintillation vials. Ten female Rhipicephalus sanguineus and ten female Ixodes scapularis ticks were placed in the vials with the hair. Ticks were evaluated for viability at 2-4 hours, 24 hours, 48 hours and 72 hours post vial infestation.

[2] = system: fleas (Ctenocephalides felis); assay: 6 Month PKPD study: efficacy against fleas on beagle dogs; assay type: in vivo; conditions: for Geometric mean live fleas (LF): dogs, 25 mg/kg topical on Day 0; for % Reduction live fleas: vs control
Procedure: as §1, §2

[3] = system: Ixodes scapularis ticks; assay: Tick infested hair samples from treated dogs (contact activity); assay type: in vivo; conditions: for # Dead Ticks (mean): hair taken 26 days post dose, ten ticks per vial; for % Reduction: vs control
Procedure: as §2

[4] = system: Rhipicephalus sanguineus ticks; assay: as above; assay type: in vivo; conditions: for # Dead Ticks (mean): hair taken 26 days post dose, ten ticks per vial; for % Reduction: vs control
Procedure: as §2

[5] = Franz diffusion cell screening (FDCS), flux and Kp; assay type: in vitro ADME, canine
Procedure: FDCS yields flux rates and permeation constants for the formulations through a fixed membrane (e.g., canine-, feline-, and bovine-skin).
Canine skin, stored at −20° C. for a maximum of 1 year, was thawed, trimmed, and dermatomed to give a thin layer of skin about 0.8-1.5 mm in thickness. The skin was mounted onto the Franz diffusion cell and equilibrated with the receptor media, 50:50 v/v % EtOH:Milli-Q water, for 2 to 4 hours. The receptor media was selected to provide sink conditions for Compound 1. Once equilibrated, test formulations were applied to the donor side, generally 50 μL/cm^2. Samples were generally obtained at 12, 24, 30, 36, 42, and 48 hours, but can be obtained at any six timepoints out to 72 hours. A control vehicle of with Compound 1 (250 mg/mL) in butyl digol:dimethyl isosorbide (90:10 v/v %) was included in every FDCS study.
Post experiment samples were stored at 4° C. until analysed for Compound 1 concentration by LCMS. Cumulative amount of Compound 1 in ng/cm^2 was calculated and plotted versus time. The gradient of straight line portion of the graph yields the flux value (ng/cm^2/hr) for a given formulation, FIG. 1. The flux can be divided by the applied concentration of Compound 1 to yield the permeability constant Kp (cm/hr)—often converted to a log 10 scale.

[6] = Solubility of Compound 1 in the formulation; assay type: physicochemical; conditions: butyl digol:dimethyl isosorbide (90:10 v/v %)
Procedure: as §2

[7] = 25 mg/kg topical, butyl digol and dimethyl isosorbide, for 5 months

For `CS(=O)(=O)CC(=O)N1CC2(C1)OCc1cc(C3=NO[C@@](c4cc(Cl)c(F)c(Cl)c4)(C(F)(F)F)C3)ccc12` [Compound 1, (S)-1-(5′-(5-(3,5-dichloro-4-fluorophenyl)-5-(trifluoromethyl)-4,5-dihydroisoxazol-3-yl)-3′H-spiro[azetidine-3,1′-isobenzofuran]-1-yl)-2-(methylsulfonyl)ethanone], which “control of ticks (reduction in geometric mean counts vs placebo)” value [1, 7] is on record?
The value was > 95%.

What about the “Geometric mean live ticks (LT)” value ([1]; 57 days) of the same compound?
The value was 0.0.

What about the “Geometric mean live ticks (LT)” value ([1]; 90 days) of the same compound?
Its value is 0.0.

What about the “Geometric mean live ticks (LT)” value ([1]; 118 days) of the same compound?
Its value is 0.1.

What about the “Geometric mean live ticks (LT)” value ([1]; 146 days) of the same compound?
Its value is 0.3.

What about the “Geometric mean live ticks (LT)” value ([1]; 174 days) of the same compound?
Its value is 4.5.

What about the “% Reduction live ticks” value ([1]; 25 mg/kg topical, 57 days) of the same compound?
Its value is 100%.

And the “% Reduction live ticks” value ([1]; 25 mg/kg topical, 90 days)?
Its value is 100%.

And the “% Reduction live ticks” value ([1]; 25 mg/kg topical, 118 days)?
Its value is 99.1%.

And the “% Reduction live ticks” value ([1]; 25 mg/kg topical, 146 days)?
Its value is 97.3%.

And the “% Reduction live ticks” value ([1]; 25 mg/kg topical, 174 days)?
The value was 64.3%.

What about the “control of fleas (reduction in geometric mean counts vs placebo)” value [2, 7] of the same compound?
The value was > 95%.

What about the “Geometric mean live fleas (LF)” value ([2]; 57 days) of the same compound?
The value was 0.2.

And the “Geometric mean live fleas (LF)” value ([2]; 90 days)?
The value was 0.0.

What about the “Geometric mean live fleas (LF)” value ([2]; 118 days) of the same compound?
The value was 0.9.

And the “Geometric mean live fleas (LF)” value ([2]; 146 days)?
The value was 0.8.

What about the “Geometric mean live fleas (LF)” value ([2]; 174 days) of the same compound?
Its value is 13.

What about the “% Reduction live fleas” value ([2]; 25 mg/kg topical, 57 days) of the same compound?
Its value is 98.6%.

And the “% Reduction live fleas” value ([2]; 25 mg/kg topical, 90 days)?
Its value is 100%.

What about the “% Reduction live fleas” value ([2]; 25 mg/kg topical, 118 days) of the same compound?
The value was 98.6%.

What about the “% Reduction live fleas” value ([2]; 25 mg/kg topical, 146 days) of the same compound?
The value was 98.3%.

What about the “% Reduction live fleas” value ([2]; 25 mg/kg topical, 174 days) of the same compound?
Its value is 74.3%.

What about the “duration of contact activity against ticks following the topical dose” value ([3]; hair samples, I. scapularis and R. sanguineus) of the same compound?
Its value is “at least 26 days”.

And the “# Dead Ticks (mean)” value ([3]; 2-4 hours post infestation)?
The value was 0.

And the “# Dead Ticks (mean)” value ([3]; 24 hours post infestation)?
Its value is 3.7.

And the “# Dead Ticks (mean)” value ([3]; 48 hours post infestation)?
Its value is 7.3.

And the “# Dead Ticks (mean)” value ([3]; 72 hours post infestation)?
The value was 9.3.

And the “% Reduction” value ([3]; 2-4 hours post infestation)?
The value was 0.0%.

What about the “% Reduction” value ([3]; 24 hours post infestation) of the same compound?
Its value is 72.7%.

And the “% Reduction” value ([3]; 48 hours post infestation)?
Its value is 86.4%.

What about the “% Reduction” value ([3]; 72 hours post infestation) of the same compound?
The value was 85.7%.

What about the “# Dead Ticks (mean)” value ([4]; 2-4 hours post infestation) of the same compound?
The value was 0.

And the “# Dead Ticks (mean)” value ([4]; 24 hours post infestation)?
Its value is 9.0.

What about the “# Dead Ticks (mean)” value ([4]; 48 hours post infestation) of the same compound?
The value was 9.3.

And the “# Dead Ticks (mean)” value ([4]; 72 hours post infestation)?
The value was 9.7.

What about the “% Reduction” value ([4]; 2-4 hours post infestation) of the same compound?
The value was 0.0%.

What about the “% Reduction” value ([4]; 24 hours post infestation) of the same compound?
The value was 100.0%.

What about the “% Reduction” value ([4]; 48 hours post infestation) of the same compound?
Its value is 100.0%.

And the “% Reduction” value ([4]; 72 hours post infestation)?
The value was 100.0%.

And the “flux rates and permeation constants with increasing dimethyl isosorbide (FIG. 3)” value ([5]; 250 mg/mL, butyl digol:dimethyl isosorbide 90:10, 80:20, 60:40 v/v %)?
Its value is “small reduction”.

What about the “flux rates and permeation constants versus oleic acid level (FIG. 4)” value ([5]; 250 mg/mL, butyl digol:oleic acid 95:5, 90:10, 80:20 v/v %) of the same compound?
Its value is “increase with increasing oleic acid levels”.

What about the “flux versus drug load (FIG. 2)” value ([5]; 50, 150 and 250 mg/mL in butyl digol:dimethyl isosorbide 90:10 v/v %) of the same compound?
The value was “increased drug load correlates to increased flux”.

And the “solubility for Compound 1” value [6]?
Its value is “excellent”.
